The source of these data is article PMC2904454 (Cancer Chemotherapy and Pharmacology, 2009).

Broadly, the AUC(0-t) is exposure summed from dosing to a finite time, without extrapolation to infinity. As a reminder, the Tmax is the time at which the peak concentration occurs. What is called half-life is how long it takes for the measured level to halve. What is called AUC(0-inf) is total exposure, with the tail of the curve extrapolated. For orientation: Cmax means the maximum level reached in the sampled fluid or tissue.

Molecules are shown by their SMILES. Where two headings read alike, the source gives them in different places.

The test system of data set [1] is patients with advanced solid tumors. Format: in vivo, human. To be noted: for MTD of sunitinib in combination with docetaxel: with docetaxel q21d; for MTD of docetaxel in combination with sunitinib: IV q21d.
The test system is the same in data set [2]. In words: Safety: adverse events graded by NCI CTCAE v3.0, ECG/MUGA, patient disposition. Format: in vivo, human. To be noted: with docetaxel.
A short description of data set [3]: Plasma pharmacokinetics of sunitinib, SU12662 and total drug. Format: in vivo, human. To be noted: for Mean trough plasma concentration: day 14 of cycle 1, Schedule 2/1.
Data set [4] in a line: Plasma pharmacokinetics of docetaxel. Format: in vivo, human. The settings on record: for half-life / AUC(0-inf) / Cmax / Tmax: plasma, intravenous; for Tmax: median (range).
Data set [5] concerns breast cancer and NSCLC. The settings on record: cited from earlier work.
For data set [6], the system named is NSCLC. To be noted: ESCAPE, with carboplatin and paclitaxel in NSCLC; cited from earlier work.
[7] abbreviates: Schedule 2/1 MTD only, dose level 3b (n = 23).
[8] abbreviates: Schedule 2/1 dose levels 0–3b, all patients (N = 40).
[9] abbreviates: Schedule 4/2 dose levels 0–1 (N = 10).
Setting [10] is: Schedule 2/1 dose level 3b, n = 8.
[11] abbreviates: Schedule 4/2 dose level 1, n = 5.
Setting [12] is: Schedule 2/1 dose level 3b (MTD), n = 10.
[13] abbreviates: Schedule 2/1 dose level 3b (MTD), n = 10, docetaxel + sunitinib (day 1 of cycle 2).
Where [14] appears, read: Schedule 2/1 dose level 3b (MTD), n = 10, sunitinib alone (day 3 of cycle 1).
[15] abbreviates: Schedule 4/2 dose level 0, n = 3.
[16] abbreviates: Schedule 4/2 dose level 0, n = 3, docetaxel + sunitinib (day 22).
Setting [17] is: Schedule 4/2 dose level 0, n = 3, sunitinib alone (day 18).
Where [18] appears, read: Schedule 4/2 dose level 1, n = 5, docetaxel + sunitinib (day 22).
Where [19] appears, read: Schedule 4/2 dose level 1, n = 5, sunitinib alone (day 18).

On to `CCN(CC)CCNC(=O)c1c(C)[nH]c(/C=C2\C(=O)Nc3ccc(F)cc32)c1C` [sunitinib, Sunitinib malate], for which the “MTD of sunitinib in combination with docetaxel” value in data set [1] (Schedule 2/1, oral) stood at 37.5 mg/day; in data set [1] (Schedule 4/2, oral), 25 mg/day. For the same compound, the “Dose reduction for sunitinib” value in data set [2] (setting [7]) is listed as 4 (17) n (%); in data set [2] (setting [8]), 5 (13) n (%); in data set [2] (setting [9]), 1 (10) n (%). For the same compound, the “Treatment interruption for sunitinib, adverse event” value was 9 (39) n (%) in data set [2] (setting [7]), 11 (28) n (%) in data set [2] (setting [8]) and 3 (30) n (%) in data set [2] (setting [9]). Further, the “Mean trough plasma concentration” value in data set [3] came out at 43.8 ng/mL. Besides, the area under the curve AUC(0-t) was found to be 297 ng·h/mL in data set [3] (human, in vivo); 1170 ng·h/mL in data set [3] (human, in vivo, AUC0–24, mean (SD)); 721 ng·h/mL in data set [3] (human, plasma, oral, 25 mg, AUC0–24, mean (SD), Schedule 4/2 dose level 0 (sunitinib 25 mg, docetaxel 60 mg/m^2), n = 3, sunitinib alone (day 18)); 548 ng·h/mL in data set [3] (human, plasma, oral, AUC0–24, mean (SD), Schedule 4/2 dose level 0, n = 3, docetaxel + sunitinib (day 22)); 1020 ng·h/mL in data set [3] (human, plasma, oral, AUC0–24, mean (SD), Schedule 4/2 dose level 1, n = 5, docetaxel + sunitinib (day 22)). Moreover, the Tmax in data set [3] (human, plasma, oral, 37.5 mg) was 8 h.
Regarding `CC(=O)O[C@@]12CO[C@@H]1C[C@H](O)[C@@]1(C)C(=O)[C@H](O)C3=C(C)[C@@H](OC(=O)[C@H](O)[C@@H](NC(=O)OC(C)(C)C)c4ccccc4)C[C@@](O)([C@@H](OC(=O)c4ccccc4)[C@H]21)C3(C)C` [docetaxel, Docetaxel], the “MTD of docetaxel in combination with sunitinib” value in data set [1] (with sunitinib on Schedule 2/1) stood at 75 mg/m^2; in data set [1] (with sunitinib on Schedule 4/2) it was 60 mg/m^2. In addition, the “AUCinf geometric mean ratio (combination/drug alone)” value in data set [4] (setting [10]) is on record as 1.12; in data set [4] (setting [11]) it was 1.43. Further, the “AUClast geometric mean ratio (combination/drug alone)” value in data set [4] (setting [10]) is recorded as 1.16; in data set [4] (setting [11]), 1.47. In addition, the “C max geometric mean ratio (combination/drug alone)” value was found to be 1.24 in data set [4] (setting [10]) and 1.46 in data set [4] (setting [11]). Moreover, in data set [4] (human, in vivo), the “AUClast, mean (SD)” value is 2,712.5 (731.9) ng*h/mL. Also, in data set [4] (human, in vivo, AUClast, mean (SD)), the AUC(0-t) is 2290 ng·h/mL. The half-life in data set [4] (human, 60 mg/m^2) was 19.6 h; in data set [4] (human, 75 mg/m^2) it was 15.7 h. The AUC(0-inf) in data set [4] (human, 60 mg/m^2, AUCinf, mean (SD), Schedule 4/2 dose level 1, n = 5, drug alone (day 1 of cycle 1)) turned out to be 2550 ng·h/mL; in data set [4] (human, 75 mg/m^2, AUCinf, mean (SD), Schedule 2/1 dose level 3b, n = 8, drug alone (day 1 of cycle 1)), 2960 ng·h/mL; in data set [4] (human, AUCinf, mean (SD), Schedule 4/2 dose level 1, n = 5, docetaxel + sunitinib (day 22 of cycle 1)) it was 3690 ng·h/mL. The Cmax in data set [4] (human, 75 mg/m^2, C max, mean (SD), Schedule 2/1 dose level 3b, n = 8, drug alone (day 1 of cycle 1)) came to 2580 ng/mL; in data set [4] (human, C max, mean (SD), Schedule 2/1 dose level 3b, n = 8, docetaxel + sunitinib (day 1 of cycle 2)), 3180 ng/mL; in data set [4] (human, C max, mean (SD), Schedule 4/2 dose level 1, n = 5, docetaxel + sunitinib (day 22 of cycle 1)), 3100 ng/mL. In addition, the Tmax was determined as 0.6 h in data set [4] (human, 75 mg/m^2, T max, Schedule 2/1 dose level 3b, n = 8, drug alone (day 1 of cycle 1)) and 0.8 h in data set [4] (human, T max, Schedule 2/1 dose level 3b, n = 8, docetaxel + sunitinib (day 1 of cycle 2)). For the same compound, the “Grade 3/4 neutropenia, patients” value in data set [5] (docetaxel monotherapy, phase III trials of breast cancer and NSCLC) is 54–84%. Moreover, in data set [5] (single-agent docetaxel), the “Use of granulocytic growth factor support” value is on record as 17.9%.
For `CCNCCNC(=O)c1c(C)[nH]c(/C=C2\C(=O)Nc3ccc(F)cc32)c1C` [SU12662], the “AUC0–24 geometric mean ratio (combination/drug alone)” value in data set [3] (setting [12]) was 0.99; in data set [3] (setting [15]), 1.10; in data set [3] (setting [11]) it was 1.06. In addition, the “C max geometric mean ratio (combination/drug alone)” value in data set [3] (setting [12]) worked out at 1.16; in data set [3] (setting [15]) it was 1.14; in data set [3] (setting [11]), 1.05. Further, the “AUC0–24, mean (SD)” value was 62.7 (32.4) ng*h/mL in data set [3] (setting [13]); 58.0 (22.3) ng*h/mL in data set [3] (Schedule 2/1 dose level 3b (MTD: sunitinib 37.5 mg + docetaxel 75 mg/m^2 q21d), n = 10, sunitinib alone (day 3 of cycle 1)); 294.0 (195.0) ng*h/mL in data set [3] (Schedule 4/2 dose level 0 (sunitinib 25 mg, docetaxel 60 mg/m^2), n = 3, sunitinib alone (day 18)); 299.9 (132.7) ng*h/mL in data set [3] (setting [16]); 341.9 (110.9) ng*h/mL in data set [3] (Schedule 4/2 dose level 1 (sunitinib 37.5 mg, docetaxel 60 mg/m^2), n = 5, sunitinib alone (day 18)); 366.8 (137.5) ng*h/mL in data set [3] (setting [18]). The “C max, mean (SD)” value in data set [3] (setting [13]) is 4.1 (1.9) ng/mL; in data set [3] (setting [14]), 3.4 (1.3) ng/mL; in data set [3] (setting [16]), 14.4 (7.2) ng/mL; in data set [3] (setting [17]) it was 13.3 (8.3) ng/mL; in data set [3] (setting [18]), 17.7 (7.2) ng/mL; in data set [3] (setting [19]), 16.3 (4.6) ng/mL. Moreover, the “T max, median (range)” value in data set [3] (setting [13]) is listed as 7.0 (2.0, 24.0) h; in data set [3] (setting [14]), 5.0 (4.0, 24.0) h; in data set [3] (setting [16]) it was 4.0 (2.0, 4.0) h; in data set [3] (setting [17]), 4.0 (4.0, 12.0) h; in data set [3] (setting [18]), 4.0 (1.0, 12.0) h; in data set [3] (setting [19]), 6.0 (2.0, 12.0) h. The “Mean trough plasma concentration” value in data set [3] is recorded as 16.4 ng/mL.
On to `CNC(=O)c1cc(Oc2ccc(NC(=O)Nc3ccc(Cl)c(C(F)(F)F)c3)cc2)ccn1` [sorafenib], for which, in data set [6], the Febrile neutropenia rate was 5% and the “Grade 3/4 thrombocytopenia rate” value is recorded as 14%.
